Measurements published in patent US20250311727A1, “SUBSTITUTED 2-AMINOAZINES AND SALTS THEREOF, AND USE THEREOF AS HERBICIDAL ACTIVE SUBSTANCES” (BAYER AKTIENGESELLSCHAFT, priority 2022, published 2025).

Assays:
Type in all cases: in vivo
[1] = tested on: Viola tricolor; assay: Post-emergence herbicidal efficacy at 80 g/ha, VIOTR; details: rated visually after about 3 weeks vs untreated controls, 100% = plants have died
Excerpt: (§1) Unwanted plants/weeds: • ABUTH: Abutilon theophrasti • ALOMY: Alopecurus myosuroides • AMARE: Amaranthus retroflexus • DIGSA: Digitaria sanguinalis • ECHCG: Echinochloa crus-galli • KCHSC: Kochia scoparia • LOLRI: Lolium rigidum • MATIN: Matricaria inodora • POAAN: Poa annua • POLCO: Polygonum convolvulus • SETVI: Setaria viridis • STEME: Stellaria media • VERPE: Veronica persica • VIOTR: Viola tricolor A. Post-Emergence Herbicidal Efficacy at 320 g/ha
(§2) Seeds of monocotyledonous and dicotyledonous weeds and crop plants were placed in sandy loam in plastic or organic planting pots, covered with soil and cultivated in a greenhouse under controlled growth conditions. 2 to 3 weeks after sowing, the test plants were treated at the one-leaf stage. The compounds of the invention, formulated in the form of wettable powders (WP) or as emulsion concentrates (EC), were then sprayed onto the green parts of the plants as aqueous suspension or emulsion with addition of 0.5% additive at a water application rate of 600 l/ha (converted). After the test plants had been kept in the greenhouse under optimum growth conditions for about 3 weeks, the activity of the preparations was rated visually in comparison to untreated controls. For example, 100% activity=the plants have died, 0% activity=like control plants.
(§3) Tables B1 to B11 below show the effects of selected compounds of the general formula (I) according to Table 1 on various harmful plants and an application rate corresponding to 80 g/ha, which were obtained by the experimental procedure mentioned above.

[2] = tested on: Digitaria sanguinalis; assay: Pre-emergence herbicide efficacy at 80 g/ha, DIGSA; details: scored visually after about 3 weeks vs untreated controls, 100% = plants have died
Excerpt: as §1
(§4) Seeds of monocotyledonous and dicotyledonous weed plants and crop plants were placed in plastic or organic planting pots and covered with soil. The compounds of the invention, formulated in the form of wettable powders (WP) or as emulsion concentrates (EC), were then applied to the surface of the covering soil as aqueous suspension or emulsion with addition of 0.5% additive at a water application rate equivalent to 600 l/ha. After the treatment, the pots were placed in a greenhouse and kept under good growth conditions for the test plants. After about 3 weeks, the efficacy of the preparations was scored visually in comparison with untreated controls as percentages. For example, 100% activity=the plants have died, 0% activity=like control plants.
(§5) Tables D1 to D12 below show the effects of selected compounds of the general formula (I) according to Table 1 on various harmful plants and an application rate corresponding to 80 g/ha, which were obtained by the experimental procedure mentioned above.

[3] = tested on: Matricaria inodora; assay: Pre-emergence herbicide efficacy at 80 g/ha, MATIN; details: scored visually after about 3 weeks vs untreated controls, 100% = plants have died
Excerpt: as §1, §4, §5

[4] = tested on: Echinochloa crus-galli; assay: Post-emergence herbicidal efficacy at 80 g/ha, ECHCG; details: rated visually after about 3 weeks vs untreated controls, 100% = plants have died
Excerpt: as §1, §2, §3

[5] = tested on: Polygonum convolvulus; assay: Pre-emergence herbicide efficacy at 80 g/ha, POLCO; details: scored visually after about 3 weeks vs untreated controls, 100% = plants have died
Excerpt: as §1, §4, §5

[6] = tested on: Amaranthus retroflexus; assay: Post-emergence herbicidal efficacy at 80 g/ha, AMARE; details: rated visually after about 3 weeks vs untreated controls, 100% = plants have died
Outline: (§6)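 Post-emergence greenhouse test: one-leaf weeds sprayed with formulated compound (0.5% additive, 600 l/ha), visually rated about 3 weeks later against untreated controls.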

[7] = tested on: Echinochloa crus-galli; assay: Pre-emergence herbicide efficacy at 80 g/ha, ECHCG; details: scored visually after about 3 weeks vs untreated controls, 100% = plants have died
Excerpt: as §1, §4, §5

[8] = tested on: Kochia scoparia; assay: Pre-emergence herbicide efficacy at 80 g/ha, KCHSC; details: scored visually after about 3 weeks vs untreated controls, 100% = plants have died
Excerpt: as §1, §4, §5

[9] = tested on: Amaranthus retroflexus; assay: Pre-emergence herbicide efficacy at 80 g/ha, AMARE; details: scored visually after about 3 weeks vs untreated controls, 100% = plants have died
Excerpt: as §1, §4, §5

[10] = tested on: Veronica persica; assay: Pre-emergence herbicide efficacy at 80 g/ha, VERPE
Excerpt: as §1, §4, §5

[11] = tested on: Viola tricolor; assay: Pre-emergence herbicide efficacy at 80 g/ha, VIOTR
Excerpt: as §1, §4, §5

[12] = tested on: Veronica persica; assay: Post-emergence herbicidal efficacy at 80 g/ha, VERPE; details: rated visually after about 3 weeks vs untreated controls, 100% = plants have died
Outline: as §6

[13] = tested on: Abutilon theophrasti; assay: Pre-emergence herbicide efficacy at 80 g/ha, ABUTH; details: scored visually after about 3 weeks vs untreated controls, 100% = plants have died
Excerpt: as §1, §4, §5

## Cc1cnc(Nc2cccc(C#N)c2-n2cc(C(F)(F)F)cn2)nc1 [Example 1-39]
[1]
  Post-emergence efficacy at 80 g/ha against VIOTR in %: 80%
[2]
  Pre-emergence efficacy at 80 g/ha against DIGSA in %: 100%
[3]
  Pre-emergence efficacy at 80 g/ha against MATIN in %: 100%
[4]
  Post-emergence efficacy at 80 g/ha against ECHCG in %: 80%
[5]
  Pre-emergence efficacy at 80 g/ha against POLCO in %: 90%
[6]
  Post-emergence efficacy at 80 g/ha against AMARE in %: 80%
[7]
  Pre-emergence efficacy at 80 g/ha against ECHCG in %: 100%
[8]
  Pre-emergence efficacy at 80 g/ha against KCHSC in %: 90%
[9]
  Pre-emergence efficacy at 80 g/ha against AMARE in %: 100%
[10]
  Pre-emergence efficacy against VERPE: 90%
[11]
  Pre-emergence efficacy against VIOTR: 100%
[12]
  Post-emergence efficacy at 80 g/ha against VERPE in %: 90%
[13]
  Pre-emergence efficacy at 80 g/ha against ABUTH in %: 100%
